Source: PMC10914731, “Homo-BacPROTAC-induced degradation of ClpC1 as a strategy against drug-resistant mycobacteria” (Nature Communications, 2024)
Values after ≈ are worked out from the molar mass of the structure shown. Values joined by “and” are separate entries in the source; they are usually repeats but may differ in a detail not shown here. Equal entries are not always repeated. Where two headings read alike, the source gives them in different places.

Experiments:
[1] = test system: M. tuberculosis H37Rv (ATCC 27294); test: microbe, parasite or virus in culture; type: cell-based
[2] = test system: Mtb (katG del) ATCC 35822; test: microbe, parasite or virus in culture; type: cell-based
Mtb # 8673 = test: microbe, parasite or virus in culture; type: cell-based
Mtb # 11291 = test: microbe, parasite or virus in culture; type: cell-based; details: for MIC: read-out: MIC Mtb # 11291
Mtb (moxR) FNDR-M1 = test: microbe, parasite or virus in culture; type: cell-based
Msm 607 = test: microbe, parasite or virus in culture; type: cell-based
Mycobacterium abscessus = test: microbe, parasite or virus in culture; type: cell-based
[3] = test system: Mtb H37Rv in THP-1 macrophages; test: Intracellular MIC assay in THP-1 macrophages; type: cell-based, Mycobacterium tuberculosis; details: H37RV, 19.44 µM
Mtb ATCC 35825 = test: microbe, parasite or virus in culture; type: cell-based
Mycobacterium avium = test: microbe, parasite or virus in culture; type: cell-based
Mycobacterium fortuitum = test: microbe, parasite or virus in culture; type: cell-based
[4] = test system: Mycobacterium intracellulare; test: microbe, parasite or virus in culture; type: cell-based; details: Mycobacterium intracellulare; mean ± SD; read-out: MIC Mycobacterium intracellulare
[5] = test system: non-replicating cells of Mtb H37Rv; type: cell-based, Mycobacterium tuberculosis
[6] = Mycobacterium tuberculosis, M. tuberculosis H37Rv 27294, single well replicates, read-out: MIC
[7] = Mycobacterium tuberculosis, Mtb H37Rv, mean ± SD, n = 3 well replicates, read-out: MIC
[8] = Mycobacterium tuberculosis, ATCC35822, M. tuberculosis ATCC 35822, single well replicates
[9] = Mycobacterium tuberculosis, ATCC35822, Mtb (katG del) ATCC 35822, mean ± SD, n = 3 well replicates
[10] = Mycobacterium tuberculosis, mean, n = 2 well replicates
[11] = Mycobacterium tuberculosis, single well replicates
[12] = M. tuberculosis FNDR-M1, single well replicates
[13] = Mycobacterium tuberculosis, Mtb (moxR) FNDR-M1, mean ± SD, n = 3 well replicates
[14] = Experiment 2, three replicate columns

**Q.** How did the MIC ([1]; M. tuberculosis H37Rv 27294, single well replicates, read-out: MIC) turn out when `NNC(=O)c1ccncc1` [Isoniazid] was run?
**A.** 0.23 µM (≈ 0.0315 µg/mL)

**Q.** And the MIC [1, 6]?
**A.** 0.23 µM (≈ 0.0315 µg/mL)

**Q.** And the MIC [1, 7]?
**A.** 0.2 µM (≈ 0.0274 µg/mL)

**Q.** What about the MIC ([2]; M. tuberculosis ATCC 35822, single well replicates) of the same compound?
**A.** >232.22 µM

**Q.** What about the MIC [2, 8] of the same compound?
**A.** > 232 µM

**Q.** And the MIC [2, 9]?
**A.** > 232 µM

**Q.** What about the MIC (Mtb # 8673; [10]) of the same compound?
**A.** 467 µM and 64 µg/mL

**Q.** And the MIC (Mtb # 8673; [11])?
**A.** 467 µM and 64 µg/mL

**Q.** What about the MIC (Mtb # 8673; single well replicates) of the same compound?
**A.** 466.68 µM (≈ 64 µg/mL)

**Q.** And the “MIC Mtb # 8673” value (Mtb # 8673; single well replicates)?
**A.** 64 µg/mL (≈ 467 µM)

**Q.** And the MIC (Mtb # 11291; [10])?
**A.** 3.6 µM and 0.5 µg/mL

**Q.** What about the MIC (Mtb # 11291; [11]) of the same compound?
**A.** 3.65 µM and 0.5 µg/mL

**Q.** And the “MIC Mtb # 11291” value (Mtb # 11291; single well replicates)?
**A.** 0.5 µg/mL (≈ 3.65 µM)

**Q.** What about the MIC (Mtb # 11291; single well replicates) of the same compound?
**A.** 3.65 µM (≈ 0.501 µg/mL)

**Q.** And the MIC (Mtb (moxR) FNDR-M1; [12])?
**A.** 0.11 µM (≈ 0.0151 µg/mL)

**Q.** What about the MIC (Mtb (moxR) FNDR-M1; Mycobacterium tuberculosis, M. tuberculosis FNDR-M1, single well replicates) of the same compound?
**A.** 0.11 µM (≈ 0.0151 µg/mL)

**Q.** And the MIC (Mtb (moxR) FNDR-M1; [13])?
**A.** 0.1 µM (≈ 0.0137 µg/mL)

**Q.** How did the MIC (Msm 607; Mycolicibacterium smegmatis, 607, read-out: MIC Msm #607, individual example (Supplementary Table 11)) turn out when `CO[C@H]1/C=C/O[C@@]2(C)Oc3c(C)c(O)c4c(O)c(c(/C=N/N5CCN(C)CC5)c(O)c4c3C2=O)NC(=O)/C(C)=C\C=C\[C@H](C)[C@H](O)[C@@H](C)[C@@H](O)[C@@H](C)[C@H](OC(C)=O)[C@@H]1C` [Rifampicin, reference compound] was run?
**A.** 9.7 µM and 8 µg/mL

**Q.** And the MIC (Msm 607; Mycolicibacterium smegmatis, ATCC607, Set-3, done at a different day than Set 1 and Set 2, read-out: MIC (Msm ATCC607) Set-3)?
**A.** 9.72 µM and 8 µg/mL

**Q.** What about the MIC (Msm 607; Mycolicibacterium smegmatis, ATCC607, mean of 3 experiments ± SD, read-out: MIC including standard deviations (Msm ATCC607)) of the same compound?
**A.** 13 µM and 10.6 µg/mL

**Q.** What about the MIC (Msm 607; Mycolicibacterium smegmatis, ATCC607, read-out: MIC (Msm ATCC607) Set-1) of the same compound?
**A.** 9.72 µM and 8 µg/mL

**Q.** And the MIC (Msm 607; Mycolicibacterium smegmatis, ATCC607, read-out: MIC (Msm ATCC607) Set-2)?
**A.** 19.4 µM and 16 µg/mL

**Q.** What about the “MIC (µg/ml) Mycobacterium abscessus” value (Mycobacterium abscessus; [14]) of the same compound?
**A.** 8 µg/mL (≈ 9.72 µM)

**Q.** What about the MIC (Mycobacterium abscessus; Experiment 2, three replicate columns, read-out: MIC (µM) Mycobacterium abscessus) of the same compound?
**A.** 9.72 µM

**Q.** What about the MIC (Mycobacterium abscessus; Mycobacteroides abscessus, Experiment 2, three replicate columns, read-out: MIC (µM) Mycobacterium abscessus) of the same compound?
**A.** 9.72 µM

**Q.** What about the MIC (Mycobacterium abscessus; Mycobacteroides abscessus, Experiment 2, three replicate columns, read-out: MIC (µg/ml) Mycobacterium abscessus) of the same compound?
**A.** 8 µg/mL

**Q.** What about the MIC (Mycobacterium abscessus; Mycobacteroides abscessus, mean ± SD, read-out: MIC Mycobacterium abscessus) of the same compound?
**A.** 9.7 µM

**Q.** What about the intracellular viable mycobacteria ([3]; 96 h) of the same compound?
**A.** 4.26 log10 cfu/ml

**Q.** What about the intracellular viable mycobacteria ([3]; 168 h) of the same compound?
**A.** 3.56 log10 cfu/ml

**Q.** And the MIC (Mtb ATCC 35825; Mycobacterium tuberculosis, ATCC35825, mean, n = 2 well replicates)?
**A.** 0.005 µM and 0.004 µg/mL

**Q.** What about the MIC (Mtb ATCC 35825; Mycobacterium tuberculosis, ATCC35825, single well replicates) of the same compound?
**A.** 0.004 µg/mL and 0.005 µM

**Q.** And the MIC (Mtb ATCC 35825; single well replicates)?
**A.** 0.005 µM (≈ 0.00411 µg/mL)

**Q.** And the “MIC Mtb ATCC 35825” value (Mtb ATCC 35825; single well replicates)?
**A.** 0.004 µg/mL (≈ 0.00486 µM)

**Q.** And the “MIC (µg/ml) Mycobacterium avium” value (Mycobacterium avium; [14])?
**A.** 0.25 µg/mL (≈ 0.304 µM)

**Q.** And the MIC (Mycobacterium avium; Experiment 2, three replicate columns, read-out: MIC (µM) Mycobacterium avium)?
**A.** 0.30 µM

**Q.** What about the MIC (Mycobacterium avium; Mycobacterium avium, Experiment 2, three replicate columns, read-out: MIC (µM) Mycobacterium avium) of the same compound?
**A.** 0.3 µM

**Q.** What about the MIC (Mycobacterium avium; Mycobacterium avium, Experiment 2, three replicate columns, read-out: MIC (µg/ml) Mycobacterium avium) of the same compound?
**A.** 0.25 µg/mL

**Q.** And the MIC (Mycobacterium avium; Mycobacterium avium, mean ± SD, read-out: MIC Mycobacterium avium)?
**A.** 0.3 µM

**Q.** What about the MIC [1, 6] of the same compound?
**A.** 0.00949 µM (≈ 0.00781 µg/mL)

**Q.** What about the MIC [1, 7] of the same compound?
**A.** 0.01 µM (≈ 0.00823 µg/mL)

**Q.** What about the MIC ([1]; Mycobacterium tuberculosis, Set 1, read-out: MIC (Mtb H37Rv) Set 1) of the same compound?
**A.** 0.00948 µM and 0.0078 µg/mL

**Q.** And the MIC ([1]; Mycobacterium tuberculosis, Set 2, read-out: MIC (Mtb H37Rv) Set 2)?
**A.** 0.00948 µM and 0.0078 µg/mL

**Q.** And the MIC ([1]; Mycobacterium tuberculosis, Set 3, done at a different day than Set 1 and Set 2, read-out: MIC (Mtb H37Rv) Set 3)?
**A.** 0.00948 µM and 0.0078 µg/mL

**Q.** And the MIC ([1]; Mycobacterium tuberculosis, individual example (Supplementary Table 11), read-out: MIC Mtb H37Rv)?
**A.** 0.01 µM and 0.01 µg/mL

**Q.** What about the MIC ([1]; Mycobacterium tuberculosis, mean of 3 experiments +/- SD, unit taken from the sets above in the same table, read-out: MIC data (Mtb H37Rv) (+/- SD)) of the same compound?
**A.** 0.009 µM and 0.0078 µg/mL

**Q.** And the “MIC (µg/ml) Mycobacterium fortuitum” value (Mycobacterium fortuitum; [14])?
**A.** 1 µg/mL (≈ 1.22 µM)

**Q.** What about the MIC (Mycobacterium fortuitum; Experiment 2, three replicate columns, read-out: MIC (µM) Mycobacterium fortuitum) of the same compound?
**A.** 1.22 µM

**Q.** And the MIC (Mycobacterium fortuitum; Mycolicibacterium fortuitum, Experiment 2, three replicate columns, read-out: MIC (µM) Mycobacterium fortuitum)?
**A.** 1.22 µM

**Q.** And the MIC (Mycobacterium fortuitum; Mycolicibacterium fortuitum, Experiment 2, three replicate columns, read-out: MIC (µg/ml) Mycobacterium fortuitum)?
**A.** 1 µg/mL

**Q.** And the MIC (Mycobacterium fortuitum; Mycolicibacterium fortuitum, mean ± SD, read-out: MIC Mycobacterium fortuitum)?
**A.** 1.2 µM

**Q.** And the MIC [4]?
**A.** 0.2 µM (≈ 0.165 µg/mL)

**Q.** And the MIC [2, 8]?
**A.** 0.00949 µM (≈ 0.00781 µg/mL)

**Q.** What about the MIC [2, 9] of the same compound?
**A.** 0.01 µM (≈ 0.00823 µg/mL)

**Q.** What about the MIC (Mtb # 8673; [10]) of the same compound?
**A.** 38.9 µM and 32 µg/mL

**Q.** What about the MIC (Mtb # 8673; [11]) of the same compound?
**A.** 38.9 µM and 32 µg/mL

**Q.** What about the MIC (Mtb # 8673; single well replicates) of the same compound?
**A.** 38.88 µM (≈ 32 µg/mL)

**Q.** And the “MIC Mtb # 8673” value (Mtb # 8673; single well replicates)?
**A.** 32 µg/mL (≈ 38.9 µM)

**Q.** What about the “inhibitory activity on non-growing Mtb H37Rv” value [5] of the same compound?
**A.** retained a partial inhibitory activity

**Q.** And the MIC (Mtb # 11291; [10])?
**A.** 0.005 µM and 0.004 µg/mL

**Q.** What about the MIC (Mtb # 11291; [11]) of the same compound?
**A.** 0.005 µM and 0.004 µg/mL

**Q.** And the “MIC Mtb # 11291” value (Mtb # 11291; single well replicates)?
**A.** 0.004 µg/mL (≈ 0.00486 µM)

**Q.** And the MIC (Mtb # 11291; single well replicates)?
**A.** 0.005 µM (≈ 0.00411 µg/mL)

**Q.** And the MIC (Mtb (moxR) FNDR-M1; [12])?
**A.** 0.019 µM and 0.00949 µM (2×)

**Q.** What about the MIC (Mtb (moxR) FNDR-M1; [13]) of the same compound?
**A.** 0.01 µM (≈ 0.00823 µg/mL)
